# Source: patent publication US8183275B2, “Substituted imidazoles as bombesin receptor subtype-3 modulators” (Merck Sharp & Dohme Corp., priority 2006, dated 2012)
# Target: T1, human BRS-3 (Homo sapiens, UniProt P32247)
# T1 construct: expressed in transfected cells
# T1 sequence (P32247 1-399): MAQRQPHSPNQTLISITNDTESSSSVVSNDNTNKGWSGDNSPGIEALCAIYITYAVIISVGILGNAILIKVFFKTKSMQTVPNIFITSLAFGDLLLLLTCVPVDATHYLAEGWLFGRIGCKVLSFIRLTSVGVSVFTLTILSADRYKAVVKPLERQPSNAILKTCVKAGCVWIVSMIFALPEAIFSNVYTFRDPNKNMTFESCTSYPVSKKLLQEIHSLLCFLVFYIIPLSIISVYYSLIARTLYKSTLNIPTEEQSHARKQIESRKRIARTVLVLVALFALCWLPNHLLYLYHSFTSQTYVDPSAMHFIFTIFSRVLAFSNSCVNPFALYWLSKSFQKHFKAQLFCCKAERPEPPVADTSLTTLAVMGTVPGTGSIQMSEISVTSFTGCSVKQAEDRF
# Assay: Bombesin Receptor Subtype 3 (BRS3) binding assay (radioligand filtration)
# Settings: BRS-3 Receptor Binding Activity for Selected Compounds
# Procedure: Dissociated cells were collected by centrifuging at 1000 rpm for 10 minutes. Cell pellets were resuspended and homogenized at 4° C. using a Polytron homogenizer (setting 40, 20 stokes) in approximately 10 mL membrane preparation buffer (10 mM Tris pH 7.4, 0.01 mM Pefabloc, 10 μM phosphoramidon and 40 μg/mL Bacitracin) per T175 flask. After centrifugation at 2200 rpm (1000×g) for 10 minutes at 4° C., the supernatant was transferred to a clean centrifuge tube and spun at 18,000 rpm (38,742×g) for 15 minutes. at 4° C. […]
# The radioligand, [^3H]-1-{4-[(4,5-difluoro-2-hydroxycarbonylphenyl)phenyl])-2-(4-cyclohexylmethyl-1H-imidazol-2-yl)ethane, was used for binding to receptor membranes generated with BRS3 from other species and was also utilized for the human receptor. […] After incubation for 1-2 hours at room temperature, membrane bound [^3H]-biphenyl was separated from free radiologand by filtering through GF/C filters presoaked in 1% PEI solution. The filters were washed five times with ice-cold washing buffer (50 mM Tris pH 7.4, 10 mM MgCl2, 2.5 mM EDTA and 0.02% Triton X-100). The radioactivity was determined by adding 30 μl of microscintillant/well after each plate was dried at room temperature overnight or placed at 50° C. for 1 hr.
# A Packard Top Count was used to read the filter plates. The data in % inhibition of binding was plotted vs. the log molar concentration of receptor ligand (compound). The IC50 was reported as the inflection point of the resulting sigmoidal curve.
row,IC50,SMILES
1,25 nM,"CC(C)(Cc1cnc(CCc2ccc(-c3ccc(F)cn3)cc2)[nH]1)C1CC1 [Example 236, 2-(4-{2-[5-(2-Cyclopropyl-2-methylpropyl)-1H-imidazol-2-yl]ethyl}phenyl)-5-fluoropyridine]"
2,20 nM,O=C(O)c1cc(F)c(F)cc1-c1ccc(CCc2nc(CC3CCCCC3)c[nH]2)cc1 [Example 94]
3,4.8 nM,CCC(C)(C)Cc1c[nH]c(CCc2ccc(-c3cccc4cn[nH]c34)cc2)n1 [Example 221]
4,15 nM,"CCC(CF)(CF)Cc1cnc(CCc2ccc(-c3ccc(F)cn3)cc2)[nH]1 [Example 237, 2-(4-{2-[5-(2,2-Bis(fluoromethyl)butyl)-1H-imidazol-2-yl]ethyl}phenyl)-5-fluoro-pyridine]"
5,5.3 nM,"CCC(C)(C)Cc1c[nH]c(CCc2ccc(-c3ccccc3OCc3nn[nH]n3)cc2)n1 [Example 246, 5-(4′-{2-[4-(2,2-Dimethylbutyl)-1H-imidazol-2-yl]ethyl}biphenyl-2-yloxymethyl)-1H-tetrazole]"
6,18 nM,"CCC(C)(C)Cc1c[nH]c(CCc2ccc(N3CCCc4cn[nH]c43)cc2)n1 [Example 226, 7-(4-{2-[5-(2,2-Dimethylbutyl)-1H-imidazol-2-yl]ethyl}phenyl)-4,5,6,7-tetrahydro-1H-pyrazolo[3,4-b]pyridine]"
7,33 nM,"CCC(C)(C)Cc1c[nH]c(CCc2ccc(-n3cccn3)cc2)n1 [Example 205, 1-(4-{2-[4-(2,2-dimethylbutyl)-1H-imidazol-2-yl]ethyl}phenyl)-1H-pyrazole]"
8,116 nM,"CC(C)(C)Cc1cnc(CCc2ccc(-c3ccccn3)cc2)[nH]1 [Example 240, 2-(4-{2-[4-(2,2-Dimethylpropyl)-1H-imidazol-2-yl]ethyl}phenyl)pyridine]"
9,6.3 nM,CCC(C)(C)Cc1c[nH]c(CCc2ccc(-c3cccc(C)n3)cc2)n1 [Example 110]
10,18 nM,"CCC(C)(C)Cc1c[nH]c(CCc2ccc(N3CCCC[C@@H]3C(=O)O)cc2)n1 [Example 225, (R)-N-(4-{2-[4-(2,2-Dimethylbutyl)-1H-imidazol-2-yl]ethyl}phenyl)piperidine-2-carboxylic acid]"
11,2.8 nM,"CCC(C)(C)Cc1c[nH]c(CCc2ccc(C3CCCCC3C(=O)O)cc2)n1 (stereo not shown) [Example 227, 2-(4-{2-[4-(2,2-Dimethylbutyl)-1H-imidazol-2-yl]ethyl}phenyl)cyclohexanecarboxylic acid]"
12,38 nM,"CC(C)(C)Cc1cnc(CCc2ccc(-c3ccccc3C(=O)O)cc2)[nH]1 [Example 1, 4′-{2-[4-(2,2-Dimethylpropyl)-1H-imidazol-2-yl]ethyl}biphenyl-2-carboxylic Acid]"
13,117 nM,O=C(O)c1ccccc1-c1ccc(CCc2ncc(CC3CCCC3)[nH]2)cc1 [Example 26]
